Data reported in patent publication US9345738B2, “Methods for the prevention or treatment of no-reflow following ischemia/reperfusion injury” (Stealth BioTherapeutics Corp., priority 2010, dated 2016).
Non-standard residues stand in square brackets, D forms with d. No end group written: not given here.

Tests used:
[1] = tested on: rabbit heart, ischemia/reperfusion insult; experiment: Rabbit model of AMI: regional myocardial ischemia (30 min CAO) and reperfusion (3 h); risk zone, no-reflow zone and infarct size; assay type: in vivo, New Zealand White rabbit; conditions: for No-reflow/area at risk / No-reflow/area of necrosis: all hearts with AR >10% of LV, mean ± SEM; for Mean IA/AR: low dose
[2] = tested on: kidney, ischemia/reperfusion insult; experiment: Rat model of renal ischemia-reperfusion; assay type: in vivo, Sprague Dawley rat; conditions: rats; 3 mg/kg 30 min before ischemia and before reperfusion; 45 min ischemia and 24 h reperfusion; predicted
Procedure: Sprague Dawley rats (250-300 g) are assigned to three groups: (1) sham surgery group without I/R; (2) I/R+saline vehicle treatment; (3) I/R+D-Arg-2′,6′-Dmt-Lys-Phe-NH2 (acetate salt) treatment. D-Arg-2′,6′-Dmt-Lys-Phe-NH2 (acetate salt) (3 mg/kg, dissolved in saline) is administered to rats 30 min before ischemia and immediately before onset of reperfusion. The control rats are given saline alone on the same schedule. Rats are anesthetized with a mixture of ketamine (90 mg/kg, i.p.) and xylazine (4 mg/kg, i.p.). The left renal vascular pedicle is occluded temporarily using a micro-clamp for 30 or 45 min. At the end of the ischemic period, reperfusion is established by removing of the clamp. At that time, the contralateral right kidney is removed. After 24 h reperfusion, animals are sacrificed and blood samples were obtained by cardiac puncture. Renal function is determined by blood urea nitrogen (BUN) and serum creatinine (BioAssay Systems DIUR-500 and DICT-500).
Analysis of No-reflow Zones, and Necrosis. The kidneys are sliced transversely into 6-8 sections. The slices are photographed under ultraviolet light to identify the region of no reflow. The areas of no-reflow in each slice are digitized using Image J (supplier Rasband WS, Image J, National Institutes of Health). […]

[3] = tested on: anatomic zone of no-reflow in the heart; experiment: No-reflow phenomenon in humans with ST-segment elevation treated with PCI; assay type: in vivo, human; conditions: patients; iv bolus less than 10 min before direct stenting; vs placebo; predicted
Procedure: Men and women, 18 years of age or older, who present within 6 hours after the onset of chest pain, who have ST-segment elevation of more than 0.1 mV in two contiguous leads, and for whom the clinical decision is made to treat with percutaneous coronary intervention (PCI) are eligible for enrollment. Patients are eligible for the study whether they are undergoing primary PCI or rescue PCI. Occlusion of the culprit coronary artery (Thrombolysis in Myocardial Infarction [TIMI] flow grade 0) at the time of admission is also a criterion for inclusion.
Left ventricular and coronary angiography is performed with the use of standard techniques, just before revascularization. […]
The primary end point is the size of the anatomic zone of no-reflow as assessed by one or more imaging techniques. Re-flow phenomenon is assessed using myocardial contrast echocardiography, coronary angiography, myocardial blush, coronary doppler imaging, electrocardiography, nuclear imaging single-photon emission CT, using thallium or technetium-99m, or PET. […] Post-contrast delayed enhancement is used on day 4±1, day 30±3 and 6+1.5 months after successful PCI and stenting to quantify infracted myocardium. This is defined quantitatively by an intensity of the myocardial post-contrast signal that is more than 2 SD above that in a reference region of remote, non-infarcted myocardium within the same slice. […]

mu-opioid receptor = conditions: stated in the description, no data shown; cited from earlier work
[4] = tested on: brain, ischemia/reperfusion insult; experiment: Mouse model of cerebral ischemia-reperfusion (occlusion of the middle cerebral artery); assay type: in vivo; conditions: wild type mice; 2-5 mg/kg ip at 0, 6, 24 and 48 h after ischemia; predicted
Procedure: Cerebral ischemia initiates a cascade of cellular and molecular events that lead to brain damage. One such event is an anatomic zone of no-reflow. Cerebral ischemia is induced by occlusion of the right middle cerebral artery for 30 min. Wild-type (WT) mice are given either saline vehicle (Veh) (ip) or D-Arg-2′,6′-Dmt-Lys-Phe-NH2 (acetate salt) (2-5 mg/kg) at 0, 6, 24 and 48 h after ischemia. Mice are killed 3 days after ischemia. The brains are sliced transversely into 6-8 sections. The slices are photographed under ultraviolet light to identify the region of no-reflow. The areas of no-reflow in each slice are digitized using Image J (supplier Rasband WS, Image J, National Institutes of Health). The areas in each slice are multiplied by the weight of the slice and the results will summed in order to obtain the mass of the no-reflow areas.
As such, the peptide D-Arg-2′,6′-Dmt-Lys-Phe-NH2 is effective in reducing the incidence of no-reflow caused by ischemia-reperfusion in the brain.

[5] = tested on: plasma membrane of several mammalian cell types; conditions: Zhao et al., 2003; cited from earlier work
[6] = Group 1, N=15, infusion from 10′ after CAO
[7] = Group 2, N=17, infusion from 20′ after CAO
[8] = Group 3, N=17, infusion from 29′ after CAO

## D-Arg-2′,6′-Dmt-Lys-Phe-NH2
[1]; [6]
  No-reflow/area at risk: 0.23 ± 0.02
  No-reflow/area of necrosis: 0.74 ± 0.04
[1]; [7]
  No-reflow/area at risk: 0.21 ± 0.03
  No-reflow/area of necrosis: 0.63 ± 0.05
[1]; [8]
  No-reflow/area at risk: 0.21 ± 0.03
  No-reflow/area of necrosis: 0.70 ± 0.09
[1]; rabbit AMI, ANCOVA, treated groups combined vs control p=0.0085
  no-reflow for any given risk zone size: significantly reduced
[1]; rabbit AMI, in some experiments (Table 13; FIG. 5)
  infarct size reduced by up to: up to 44.7%
[1]; rabbit AMI, in some experiments (not shown)
  infarct size reduced, average: 11%
[1]; rabbit AMI, infusion started 10 min into 30 min of ischemia
  Results: reduction of mean IA/AR from placebo: ↓44.7% from placebo
[1]; rabbit AMI, infusion started 20 min into 30 min of ischemia
  Results: reduction of mean IA/AR from placebo: ↓25.5% from placebo
[1]; rabbit AMI, infusion started 30 min into ischemia immediately prior to reperfusion
  Results: reduction of mean IA/AR from placebo: ↓25.5% from placebo
[1]; rabbit AMI, iv infusion started 10 min into 30 min of ischemia
  Mean IA/AR: 20.7%
[1]; rabbit AMI, iv infusion started 20 min into 30 min of ischemia
  Mean IA/AR: 27.9%
[1]; rabbit AMI, iv infusion started 30 min into ischemia immediately prior to reperfusion
  Mean IA/AR: 26.7%
[1]; rabbit AMI, treated vs control
  reduction in the extent of no-reflow compared with control hearts (trend): 21%
[1]; rabbits with AR/LV >15%, all active groups combined, N=48
  Necrotic area divided by area-at-risk (AN/AR), mean: 0.318
[2]
  anatomic zone of no-reflow in the kidney: prevents or reduces the anatomic zone of no-reflow
[3]
  size of the anatomic zone of no-reflow: smaller anatomic zone of no-reflow than that seen with placebo
mu-opioid receptor
  mu-opioid receptor agonist activity: does not have mu-opioid receptor agonist activity
[4]
  anatomic zone of no-reflow in the brain: prevent or reduce the anatomic zone of no-reflow
  infarct volume: significant reduction in infarct volume

## F[dR]FK-NH2
mu-opioid receptor
  mu-opioid receptor agonist activity: does not have mu-opioid receptor agonist activity

## Tyr-D-Arg-Phe-Lys-NH2
mu-opioid receptor
  mu-opioid receptor agonist activity: has mu-opioid receptor agonist activity

## 2′,6′-Dmt-D-Arg-Phe-Lys-NH2
[5]
  penetration of the plasma membrane: readily penetrates the plasma membrane of several mammalian cell types in an energy-independent manner
